Assays:
HCT116 cells = assay: p53 mRNA, vegf IresRNA and vegf mRNA in HCT116 cells exposed to genotoxic stress (Northern); assay type: cell-based, human
Experimental: HCT116 cells (parent cells) were exposed to genotoxic stress that upregulates the expression of p53 mRNA. […] Also, HCT116 cells were exposed to UV-B for 1 minute. Then, after placing them under non-exposed conditions for a predetermined time (6, 12 hours), the expressions were examined in the same manner as in the above.

p53 = p53 mRNA (quantitative RT-PCR) and protein in HCT116 clones stably expressing vegf IresRNA, cisplatin treated; assay type: cell-based, human; settings: mock HCT116 cells, cisplatin 5 μg/mL, 6 h, 12 h vs 0 h
Description: Full length cDNAs of vegf IresRNA having a sequence from base 600 to base 879 in 5′ UTR of vegf mRNA of SEQ ID NO. 1 were inserted into plasmid vectors pcDNA3.1 (Invitrogen). Thus, vegf IresRNA expression vectors (pcDNA-vegf Ires) were produced. These vegf IresRNA expression vectors (pcDNA-vegf Ires) were transfected into HCT116 (parent cells, wild-type p53), and two types of cell clones that stably overexpress vegf IresRNA were selected with an antibiotic G418. The thus-established two types of vegf IresRNA-expressing cells are hereinafter referred to as vegf Ires-#1 and vegf Ires-#2. Furthermore, as a mock treatment, plasmid vectors pcDNA3.1 lacking the above-described insert were transfected into HCT116 cells, and the transfect cell clones were selected with the antibiotic G418. These cell clones were hereinafter referred to as a mock. Then, expression of vegf IresRNA in these cell clones was examined by Northern blotting.
Subsequently, each of these vegf IresRNA-stably expressing cell strains was treated in the presence or absence of 5 μg/mL of an anticancer agent cisplatinin for a predetermined time (0, 6, 8, 12, 24 h). Thereafter, the expression level of p53 mRNA was analyzed by quantitative RT-PCR, and the expression level of p53 protein was analyzed by Western immunoblotting. […]

SMILES: N.N.[Cl][Pt][Cl] [cisplatin]
- expression of the p53 mRNA (HCT116 cells; HCT116, 5-FU 80 μmol/L, MMC 6 μg/ml or cisplatin 5 μg/ml, 0, 6, 12 hours): increased
- expression of the vegf IresRNA (HCT116 cells; HCT116, cisplatin 5 μg/ml): decreased
- expressions of p53 mRNA and p53 protein (p53): significant increase
